# Source: PMC6116703, “Ethenesulfonyl fluoride derivatives as telomerase inhibitors: structure-based design, SAR, and anticancer evaluation in vitro” (Journal of Enzyme Inhibition and Medicinal Chemistry, 2018)
# Read-outs that look alike come from different tables or passages of the source.
# How the values were obtained:
# human melanoma cell A375 = experiment: Cell proliferation (MTT) assay, A375; type: cell-based
# Procedure: (§1) The antiproliferative activities evaluation was conducted by using a modified procedure as described in the literature. Briefly, target tumour cells were grown to log phase in RPMI 1640 medium supplemented with 10% fetal bovine serum. After diluting to 3 × 10^4 cells mL^−1 with the complete medium, 100 µL of the obtained cell suspension was added to each well of 96-well culture plates. The subsequent incubation was performed at 37 °C, 5% CO2 atmosphere for 24 h before subjecting to antiproliferation assessment. The tested samples at pre-set concentrations were added to six wells with Doxorubicin (AMD) co-assayed as a positive reference. After 48 h of exposure period, 25 µL of PBS containing 2.5 mg·mL^−1 of MTT was added to each well. After 4 h, the medium was replaced by 150 µL DMSO to dissolve the purple formazan crystals produced. The absorbance at 570 nm of each well was measured using an ELISA plate reader. The data represented the mean of three experiments in triplicate and were expressed as means ± SD using Student’s test.
# [1] = test system: human breast cancer cell MDA-MB-231; experiment: Cell proliferation (MTT) assay, MDA-MB-231; type: cell-based
# Procedure: as §1
# [2] = test system: human hepatoma cell SMMC-7721; experiment: Cell proliferation (MTT) assay, SMMC-7721; type: cell-based; details: read-out: IC50 SMMC-7721
# Procedure: as §1
# telomerase = target: T1, telomerase (Homo sapiens, UniProt O14746); experiment: Telomerase activity TRAP-PCR-ELISA assay (A375 cell extract); type: biochemical; details: TRAP-PCR-ELISA, A375 cells, 24 h treatment
# T1 construct: endogenous in cells; host or cells: A375 human melanoma cells
# Procedure: Thirty-six compounds were tested in a search for inhibitors of telomerase activity using the TRAP-PCR-ELISA assay. In detail, the A375 cells were firstly maintained in RPMI 1640 buffer (Hyclone, Miami, FL), supplemented with 10% fetal bovineserum (GIBCO, New York, NY), streptomycin (0.1 mg/mL) and penicillin (100 IU/mL) at 37 °C in a humidified atmosphere containing 5% CO2. After trypsinisation, 5 × 10^4 cultured cells in logarithmic growth were seeded into T25 flasks (Corning, New York, NY) and cultured to allow to adherence. […] After 24 h treatment, the cells were harvested by cell scraper orderly followed by washing once with PBS. The cells were lysed in 150 µL RIPA cell lysis buffer (Santa Cruz, Santa Cruz, CA), and incubated on ice for 30 min. The cellular supernatants were obtained via centrifugation at 12,000g for 20 min at 4 °C and stored at –80 °C. The TRAP-PCR-ELISA assay was performed using a telomerase detection kit (Roche, Basel, Switzerland) according to the manufacturer’s protocol. In brief, 2 µL of cell extracts were mixed with 48 µL TRAP reaction mixtures. TRAP primers and Taq polymerase are incubated at 25 °C for 30 min. PCR was then initiated at 94 °C, 120 s for predenaturation and performed using 35 cycles each consisting of 94 °C for 30 s, 50 °C for 30 s, 72 °C for 90 s. Then 20 µL of PCR products were hybridised to a digoxigenin (DIG)-labelled telomeric repeat specific detection probe. And the PCR products were immobilised via the biotin-labelled primer to a streptavidin-coated microtiter plate subsequently. The immobilised DNA fragments were detected with a peroxidase-conjugated anti-DIG antibody and visualised following the addition of the stop regent. The microtitre plate was assessed on TECAN Infinite M200 microplate reader (Mannedorf, Switzerland) at a wavelength of 490 nm, and the final value were presented as mean ± SD[23].
# [3] = antiproliferative, MTT, 48 h exposure, read-out: IC50 A375
# [4] = antiproliferative, MTT, 48 h exposure, read-out: IC50 MDA-MB-231
# [5] = antiproliferative, MTT, 48 h exposure
# [6] = IC50 inhibitory activity against telomerase
# [7] = Homo sapiens, A-375, 48 h, read-out: IC50 A375, antiproliferative, MTT, 48 h exposure
# [8] = read-out: IC50 A375, antiproliferative, MTT, 48 h exposure
# [9] = Homo sapiens, MDA-MB-231, 48 h, read-out: IC50 MDA-MB-231, antiproliferative, MTT, 48 h exposure
# T1 sequence (O14746 whole entry): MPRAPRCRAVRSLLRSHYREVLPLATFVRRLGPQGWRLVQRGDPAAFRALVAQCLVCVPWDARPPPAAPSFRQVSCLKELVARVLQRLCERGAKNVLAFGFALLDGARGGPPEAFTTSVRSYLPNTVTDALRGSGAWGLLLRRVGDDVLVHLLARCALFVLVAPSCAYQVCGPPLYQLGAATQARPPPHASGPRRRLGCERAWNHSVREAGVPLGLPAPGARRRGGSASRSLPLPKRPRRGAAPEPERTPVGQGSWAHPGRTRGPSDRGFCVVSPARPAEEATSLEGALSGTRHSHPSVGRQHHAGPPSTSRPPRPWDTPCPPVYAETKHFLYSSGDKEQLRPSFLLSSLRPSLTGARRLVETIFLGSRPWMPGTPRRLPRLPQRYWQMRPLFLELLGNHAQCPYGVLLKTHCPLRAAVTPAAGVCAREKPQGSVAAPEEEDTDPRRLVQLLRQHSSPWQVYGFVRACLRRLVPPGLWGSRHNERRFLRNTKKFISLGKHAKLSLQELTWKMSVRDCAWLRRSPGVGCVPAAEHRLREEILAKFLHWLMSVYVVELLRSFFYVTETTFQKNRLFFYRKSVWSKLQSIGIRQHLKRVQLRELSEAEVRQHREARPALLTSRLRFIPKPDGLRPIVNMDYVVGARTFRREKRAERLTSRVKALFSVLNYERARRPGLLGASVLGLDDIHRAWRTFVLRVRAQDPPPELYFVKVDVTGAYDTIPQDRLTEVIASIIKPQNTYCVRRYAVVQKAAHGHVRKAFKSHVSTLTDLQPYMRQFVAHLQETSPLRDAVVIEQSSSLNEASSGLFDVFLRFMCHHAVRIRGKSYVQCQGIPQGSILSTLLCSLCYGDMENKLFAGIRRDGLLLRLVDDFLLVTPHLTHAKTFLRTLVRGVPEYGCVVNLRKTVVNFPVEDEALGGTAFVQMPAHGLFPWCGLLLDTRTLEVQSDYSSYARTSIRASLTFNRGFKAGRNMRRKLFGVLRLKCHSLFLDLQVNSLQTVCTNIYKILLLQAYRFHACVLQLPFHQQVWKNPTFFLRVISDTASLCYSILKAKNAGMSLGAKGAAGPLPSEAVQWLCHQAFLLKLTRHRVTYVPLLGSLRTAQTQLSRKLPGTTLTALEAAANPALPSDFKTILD
SMILES,IC50 (human melanoma cell A375; [3]) [µM],"IC50 [1, 4] [µM]","IC50 [2, 5] [µM]",IC50 (telomerase; [6]) [µM],also measured
O=S(=O)(F)/C=C/c1ccc(Oc2ccccc2)cc1 [Compound 3],27 ± 0.82,31.8 ± 1.44,–,–,–
COc1ccc(/C=C/S(=O)(=O)F)cc1 [Compound 4],16.9 ± 1.22,24.7 ± 2.15,73.8 ± 1.7,–,–
CC(=O)c1ccc(/C=C/S(=O)(=O)F)cc1 [Compound 11],10.6 ± 0.9,5.66 ± 0.28,65.8 ± 1.79,–,–
O=[N+]([O-])c1ccc(/C=C/S(=O)(=O)F)cc1 [Compound 12],–,–,–,2.77 ± 0.58,"IC50 (human melanoma cell A375; [7]): ~3 µM; IC50 (human melanoma cell A375; [8]): 3.58 ± 0.11 µM; IC50 [1, 9]: 4.25 ± 0.32 µM"
N#Cc1ccc(/C=C/S(=O)(=O)F)cc1 [Compound 13],–,–,–,39 ± 1.29,–
CCOC(=O)c1ccc(/C=C/S(=O)(=O)F)cc1 [Compound 14],50 ± 1.78,3.6 ± 0.3,27 ± 1.01,–,–
COc1cccc(/C=C/S(=O)(=O)F)c1 [Compound 16],21.1 ± 0.87,28.5 ± 1.78,45.6 ± 1.29,–,–
Cc1cccc(/C=C/S(=O)(=O)F)c1 [Compound 17],–,–,–,10.1 ± 1.13,"IC50 (human melanoma cell A375; [7]): 12.1 ± 1.19 µM; IC50 [1, 9]: 10.6 ± 0.91 µM"
O=S(=O)(F)/C=C/c1cccc(F)c1 [Compound 18],–,–,–,1.09 ± 0.11,"IC50 ([2]; Homo sapiens, SMMC-7721, 48 h): 24.8 ± 1.58 µM; IC50 (human melanoma cell A375; [7]): ~3 µM; IC50 (human melanoma cell A375; [8]): 3.82 ± 0.31 µM; IC50 [1, 9]: 5.24 ± 0.4 µM"
O=S(=O)(F)/C=C/c1cccc(Br)c1 [Compound 19],20.1 ± 0.9,12.1 ± 1.52,–,–,–
O=S(=O)(F)/C=C/c1cccc(C(F)(F)F)c1 [Compound 20],–,–,–,4.17 ± 0.39,"IC50 ([2]; Homo sapiens, SMMC-7721, 48 h): 20 ± 1.74 µM; IC50 (human melanoma cell A375; [7]): 10.4 ± 0.82 µM; IC50 [1, 9]: 3.18 ± 0.2 µM"
O=[N+]([O-])c1cccc(/C=C/S(=O)(=O)F)c1 [Compound 22],–,–,–,2.25 ± 0.3,"IC50 ([2]; Homo sapiens, SMMC-7721, 48 h): 26.1 ± 0.73 µM; IC50 (human melanoma cell A375; [7]): 4.14 ± 0.21 µM; IC50 [1, 9]: 6.54 ± 0.74 µM"
COc1ccccc1/C=C/S(=O)(=O)F [Compound 23],25.3 ± 1.33,33.8 ± 2.89,–,–,–
Cc1ccccc1/C=C/S(=O)(=O)F [Compound 24],24.5 ± 1.55,41.8 ± 2.97,52.8 ± 1.44,–,–
Cc1ccc(/C=C/S(=O)(=O)F)c(C)c1 [Compound 27],7.83 ± 0.4,39.8 ± 2.55,50.7 ± 1.82,–,–
Cc1cc(C)cc(/C=C/S(=O)(=O)F)c1 [Compound 28],10.2 ± 0.75,20.6 ± 2.11,16.7 ± 0.65,–,–
Cc1cc(/C=C/S(=O)(=O)F)ccc1Br [Compound 29],14.3 ± 0.91,16.9 ± 0.87,–,–,–
O=S(=O)(F)/C=C/c1cccc2ccccc12 [Compound 30],28 ± 1.31,25.1 ± 0.99,2.29 ± 0.17,–,–
O=S(=O)(F)/C=C/c1ccc(F)cc1F [Compound 32],12.3 ± 0.41,16.1 ± 0.41,27 ± 0.9,–,–
O=S(=O)(F)/C=C/c1cccc(O)c1 [Compound 34],5.37 ± 0.6,23.4 ± 0.88,23 ± 0.45,–,–
O=S(=O)(F)/C=C/c1ccccc1O [Compound 35],7.41 ± 0.77,7.41 ± 0.33,36.5 ± 0.7,–,–
O=S(=O)(F)/C=C/c1cc(O)cc(O)c1 [Compound 36],–,–,–,1.44 ± 0.22,"IC50 ([2]; Homo sapiens, SMMC-7721, 48 h): 29 ± 0.78 µM; IC50 (human melanoma cell A375; [7]): 4.01 ± 0.68 µM; IC50 [1, 9]: 37.2 ± 1.4 µM"

SMILES,IC50 (human melanoma cell A375; [3]) [µM],"IC50 [1, 4] [µM]","IC50 [2, 5] [µM]",IC50 (telomerase; [6]) [µM],also measured
O=Cc1ccc(/C=C/S(=O)(=O)F)o1 [Compound 37],9.09 ± 0.81,21.5 ± 1.29,35.1 ± 0.49,–,–
O=S(=O)(F)/C=C/c1cccc2c1oc1ccccc12 [Compound 38],40.8 ± 1.39,83.2 ± 2.91,–,–,–
O=S(=O)(F)/C=C/c1cc2ccccc2o1 [Compound 39],–,–,–,48.8 ± 2.22,–
O=S(=O)(F)/C=C/c1ccsc1 [Compound 41],14.6 ± 1.2,10.6 ± 0.46,28.8 ± 0.75,–,–
O=S(=O)(F)/C=C/c1cc2ccccc2s1 [Compound 42],–,–,–,–,IC50 inhibitory activity against telomerase (telomerase): no
Cc1ccc(S(=O)(=O)n2cc(/C=C/S(=O)(=O)F)c3ccccc32)cc1 [Compound 44],–,–,–,15.2 ± 1.56,"IC50 ([2]; Homo sapiens, SMMC-7721, 48 h): 9.24 ± 0.4 µM; IC50 (human melanoma cell A375; [7]): 5.34 ± 0.3 µM"
Cc1ccc(S(=O)(=O)n2ccc3cc(/C=C/S(=O)(=O)F)ccc32)cc1 [Compound 45],–,–,–,–,"IC50 ([2]; Homo sapiens, SMMC-7721, 48 h): 15.6 ± 0.78 µM; IC50 (human melanoma cell A375; [7]): 8.61 ± 0.28 µM"
O=S(=O)(F)/C=C/c1cnn(-c2ccccc2)c1 [Compound 47],–,–,–,2.13 ± 0.6,"IC50 ([2]; Homo sapiens, SMMC-7721, 48 h): 21.2 ± 0.49 µM; IC50 (human melanoma cell A375; [7]): 9.04 ± 0.29 µM; IC50 [1, 9]: 10.2 ± 0.44 µM"
O=S(=O)(F)/C=C/C=C/c1ccc(Br)cc1 [Compound 51],42 ± 1.6,20.9 ± 1.09,31.2 ± 1.33,–,–
O=S(=O)(F)/C=C/C=C/c1ccc(C(F)(F)F)cc1 [Compound 52],13.3 ± 0.87,15.3 ± 0.82,24.3 ± 1.19,–,–
O=S(=O)(F)/C=C/C=C/c1ccccc1Cl [Compound 53],17.5 ± 0.98,28.5 ± 1.14,57.3 ± 2.01,–,–
O=S(=O)(F)/C=C/C=C/c1ccccc1C(F)(F)F [Compound 54],17.5 ± 1.52,28.5 ± 1.16,19 ± 0.71,–,–
O=S(=O)(F)/C=C/C=C/c1ccc2ccccc2c1 [Compound 55],–,–,–,47.2 ± 1.52,"IC50 ([2]; Homo sapiens, SMMC-7721, 48 h): 34.1 ± 1.45 µM; IC50 (human melanoma cell A375; [7]): 5.87 ± 0.2 µM; IC50 [1, 9]: 14.3 ± 1.07 µM"
O=C1C=C(/C=C/S(=O)(=O)F)CCC1 [Compound 58],–,–,–,–,IC50 (telomerase; read-out: IC50 inhibitory activity against telomerase): 39.9 ± 1.29 µM
O=S(=O)(F)/C=C/c1cc(F)nc(F)c1 [Compound 59],–,–,–,44.2 ± 2.26,IC50 (human melanoma cell A375; [7]): 58 ± 1.71 µM
O=Cc1cccc(/C=C/S(=O)(=O)F)c1 [Compound 60],10.7 ± 0.8,–,–,–,–
O=C(O)c1ccc(/C=C/S(=O)(=O)F)cc1 [Compound 62],–,–,–,39.9 ± 1.4,"IC50 (human melanoma cell A375; [7]): 45.1 ± 1.4 µM; IC50 [1, 9]: 86.2 ± 2.44 µM"
O=S(=O)(F)/C=C/c1ccc(I)cc1 [Compound 63],–,–,–,45.3 ± 1.87,–
CSc1ccc(/C=C/S(=O)(=O)F)cc1 [Compound 64],23.9 ± 1.37,38.3 ± 0.9,–,–,–
Cc1ccc(/C=C/S(=O)(=O)F)cc1 [Compound 65],32.7 ± 1.22,30.5 ± 1.29,–,–,–
O=S(=O)(F)/C=C/c1ccccc1Cl [Compound 78],26.3 ± 2.35,35.2 ± 1.28,–,–,–
O=S(=O)(F)/C=C/c1ccc(C(F)(F)F)nc1 [Compound 79],23 ± 1.75,–,–,–,–
